In patent US20050004017A1, “Methods and compositions for treating hcap associated diseases” (priority 2001, published 2005):

Test system: HCAP interaction with ErbB-2
Test: Co-immunoprecipitation of HCAP with anti-ErbB-2 antibody from radicicol-treated T47D cells
Type: cell-based
Settings: T47D cells treated with radicicol (3 μM) for 0, 3 or 6 hours; gel electrophoresis, bands identified by mass spectroscopy
Description: Band numbers 30 and 35 were identified by mass spectroscopic analysis as hepatocellular associated protein (HCAP). […] T47D cells, a breast cancer cell line that is mutant for the p53 tumor suppressor gene and ErbB-2 positive, were treated with radicicol (RA) for 0, 3 or 6 hours, and then proteins were immunoprecipitated using an anti-ErbB-2 antibody and resolved by gel electrophoresis. […] Band nos. 30 and 35 were identified by mass spectroscopic analysis to be hepatocarcinoma associated protein (HCAP). The amount of HCAP immunoprecipitated with anti-ErbB-2 antibody decreased in the presence of RA.

SMILES: C[C@@H]1C[C@H]2O[C@@H]2/C=C\C=C\C(=O)Cc2c(Cl)c(O)cc(O)c2C(=O)O1 [radicicol, Radicicol]
- amount of HCAP immunoprecipitated with anti-ErbB-2 antibody: decreased
